According to US6001353A, “20α-alpha-hydroxy steroid dehydrogenase related material and methods” (priority 1997, dated 1999):

Assays:
recombinant 20α-HSD [1] = biological target: T1, recombinant 20α-HSD (Rattus norvegicus, UniProt P51652); assay: Substrate specificity, oxidation/reduction of steroid substrates, spectrophotometric; format: biochemical; design: a DNA fragment of 1.2 Kb containing the entire coding region of 20α-HSD; GST (E. coli preparation only; removed with thrombin) (N, cleaved yes); made in house; host or cells: E. coli DH5α (pGEX-4T-2) and Sf-9 insect cells (baculovirus, pBlueBacIII); conditions: for Recombinant 20α HSD activity, expressed in E. coli: enzyme expressed in E. coli; for Recombinant 20α HSD activity, expressed in E. coli / Recombinant 20α HSD activity, expressed in Sf-9 cells: spectrophotometric; for Recombinant 20α HSD activity, expressed in Sf-9 cells: enzyme expressed in Sf-9 cells
T1 sequence (P51652 1-323): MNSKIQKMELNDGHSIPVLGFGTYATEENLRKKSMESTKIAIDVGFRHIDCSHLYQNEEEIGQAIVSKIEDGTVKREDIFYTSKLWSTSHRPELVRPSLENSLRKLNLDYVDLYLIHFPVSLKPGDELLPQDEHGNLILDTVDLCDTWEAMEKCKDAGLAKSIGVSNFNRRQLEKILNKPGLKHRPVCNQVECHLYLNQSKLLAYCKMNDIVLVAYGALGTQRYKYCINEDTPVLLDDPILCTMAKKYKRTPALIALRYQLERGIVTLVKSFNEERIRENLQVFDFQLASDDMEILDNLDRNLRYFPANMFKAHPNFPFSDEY
Procedure: (§1) Enzyme activity of the recombinant 20α-HSD was determined by the rate of conversion of [1-2^3 H]-20α-hydroxy-pregn-4-ene-3-one (20α-hydroxprogesterone) to [1,2^3 H]progesterone in the presence of NADPH as described by Jones & Hsueh [J. Biol. Chem. 256:1248-1254 (1981)]. Enzyme activity was measured in this manner due to the fact that in an in vitro setting the reaction may be reversed, i.e. conversion of 20α-hydroxyprogesterone to progesterone. The assay mixtures (0.05 ml) contained 100 μM [1,2^3 H]hydroxyprogesterone [Dupont-New England Nuclear Research Products, Boston Mass.] […] Following incubation at 37° C. for 30 minutes, the [^3 H]progesterone content of each sample was determined after isolation by thin layer chromatography isolation. One unit of enzyme activity is defined as that amount of enzyme catalyzing the formation of 1 nmol of [^3 H]progesterone/minute from [1,2^3 H]hydroxyprogesterone. Specific activity is expressed as units/min/mg protein. The protein concentration was determined by the Bradford method using bovine serum albumin [Sigma Chemical Co, St. Louis, Mo.] as the standard [Bradford, Anal. Biochem. 72:248-254 (1976)]. […] Acta. 799:51-58 (1984); Noda et al., Biochim Biophys. Acta. 1079:112-118 (1991)].
To determine substrate specificity of recombinant 20α-HSD, the oxidation/reduction of several steroid substrates was also studied. […] Acta. 799:51-58 (1984); Noda et al., Biochim Biophys. Acta. 1079:112-118 (1991)]. […] However, compared to 20α-hydroxyprogesterone, 20α-HSD activity toward 17α-hydroxyprogesterone was lower, and its activity with progesterone was relatively higher.
The enzyme activity was measured spectrophotometrically. The data are expressed as the mean of duplicate determinations from three separate experiments. ND, not detected.

recombinant 20α-HSD [2] = biological target: T1, recombinant 20α-HSD; assay: Aldo-keto (aldose/aldehyde) reductase activity, spectrophotometric NADPH oxidation at 340 nm; format: biochemical; design: a DNA fragment of 1.2 Kb containing the entire coding region of 20α-HSD; GST (E. coli preparation only; removed with thrombin) (N, cleaved yes); made in house; host or cells: E. coli DH5α (pGEX-4T-2) and Sf-9 insect cells (baculovirus, pBlueBacIII); conditions: for activity relative to that observed with 20α-hydroxyprogesterone: maximal activity among aldose/aldehyde reductase substrates; for reduction of substrate by 20α-HSD (in words): purified recombinant 20α-HSD proteins
Procedure: Aldo-keto reductase activity of the recombinant 20α-HSD was assayed spectrophotometrically by measuring the rate of oxidation of NADPH at 340 nm at 37° C. using a saturating concentration of benzaldehyde, 2-nitrobenzaldehyde, D,L -glyceraldehyde methylgloxal, 9,10-phenanthrequinone or ^D -galactose [Azhar et al., Biochemistry 26:7047-7057 (1987)].

recombinant 20α-HSD [3] = biological target: T1, recombinant 20α-HSD; assay: Steady state kinetic constants (Lineweaver-Burk); format: biochemical; design: a DNA fragment of 1.2 Kb containing the entire coding region of 20α-HSD; GST (E. coli preparation only; removed with thrombin) (N, cleaved yes); made in house; host or cells: E. coli DH5α (pGEX-4T-2) and Sf-9 insect cells (baculovirus, pBlueBacIII); conditions: for concentration at which enzyme activity reached saturation / maximal activity: bacterially expressed enzyme, other reactant fixed (NADP 1 mM or 20α-hydroxyprogesterone 100 μM)
Source text: The data were transformed into a reciprocal Lineweaver-Burk plot to calculate the Km and maximum velocity (Vmax) values.

[4] = substrate: NC(=O)c1ccc[n+]([C@@H]2O[C@H](COP(=O)([O-])OP(=O)(O)OC[C@H]3O[C@@H](n4cnc5c(N)ncnc54)[C@H](OP(=O)(O)O)[C@@H]3O)[C@@H](O)[C@H]2O)c1; assay: purified protein, by the assay type
[5] = substrate: C[C@H](O)[C@H]1CC[C@H]2[C@@H]3CCC4=CC(=O)CC[C@]4(C)[C@H]3CC[C@]12C; assay: Steady state kinetic constants (Lineweaver-Burk); format: biochemical, rat
recombinant 20α-HSD [6] = biological target: T1, recombinant 20α-HSD; assay: 20α-HSD enzyme activity: conversion of [3H]20α-hydroxyprogesterone to [3H]progesterone; format: biochemical; design: a DNA fragment of 1.2 Kb containing the entire coding region of 20α-HSD; GST (E. coli preparation only; removed with thrombin) (N, cleaved yes); made in house; host or cells: E. coli DH5α (pGEX-4T-2) and Sf-9 insect cells (baculovirus, pBlueBacIII); conditions: for Mean Specific Activity ± SE: purified recombinant enzyme, Table 3
Procedure: as §1

[7] = other: enzyme expressed in E. coli, other reactant fixed (NADP 1 mM or 20α-hydroxyprogesterone 100 μM)
[8] = other: enzyme expressed in Sf-9 cells (baculovirus)

CC(=O)[C@H]1CC[C@H]2[C@@H]3CCC4=CC(=O)CC[C@]4(C)[C@H]3CC[C@]12C [Progesterone]
Recombinant 20α HSD activity, expressed in E. coli (recombinant 20α-HSD [1]): 459 nmol/min/mg protein | Recombinant 20α HSD activity, expressed in Sf-9 cells (recombinant 20α-HSD [1]): 352 nmol/min/mg protein

O=Cc1ccccc1 [Benzaldehyde]
activity relative to that observed with 20α-hydroxyprogesterone (recombinant 20α-HSD [2]): approximately a third | reduction of substrate by 20α-HSD (in words) (recombinant 20α-HSD [2]): very efficiently

C[C@]12CCC(=O)C[C@@H]1CC[C@@H]1[C@@H]2CC[C@]2(C)[C@@H](O)CC[C@@H]12 [5α-dihydrotestosterone]
action of recombinant 20α-HSD on substrate (in words) (recombinant 20α-HSD [1]): did not act on

O=Cc1ccc([N+](=O)[O-])cc1 [4-Nitrobenzaldehyde]
reduction of substrate by 20α-HSD (in words) (recombinant 20α-HSD [2]): very efficiently

C[C@H](O)[C@H]1CC[C@H]2[C@@H]3CCC4=CC(=O)CC[C@]4(C)[C@H]3CC[C@]12C [20α-Hydroxyprogesterone, 20α-hydroxy-pregn-4-ene-3-one]
Recombinant 20α HSD activity, expressed in E. coli (recombinant 20α-HSD [1]): 321 nmol/min/mg protein | Recombinant 20α HSD activity, expressed in Sf-9 cells (recombinant 20α-HSD [1]): 250 nmol/min/mg protein | concentration at which enzyme activity reached saturation / maximal activity (recombinant 20α-HSD [3]): around 10 μM

NC(=O)c1ccc[n+]([C@@H]2O[C@H](COP(=O)([O-])OP(=O)(O)OC[C@H]3O[C@@H](n4cnc5c(N)ncnc54)[C@H](OP(=O)(O)O)[C@@H]3O)[C@@H](O)[C@H]2O)c1 [NADP]
concentration at which enzyme activity reached saturation / maximal activity (recombinant 20α-HSD [3]): about 100 μM

O=CC(O)CO (racemic) [D,L -Glyceraldehyde]
activity relative to that observed with 20α-hydroxyprogesterone (recombinant 20α-HSD [2]): approximately a third | reduction of substrate by 20α-HSD (in words) (recombinant 20α-HSD [2]): very efficiently

C[C@]12C[C@H](O)[C@H]3[C@@H](CCC4=CC(=O)CC[C@@]43C)[C@@H]1CC[C@@H]2C(=O)CO [Corticosterone]
action of recombinant 20α-HSD on substrate (in words) (recombinant 20α-HSD [1]): did not act on

CC(=O)[C@@]1(O)CC[C@H]2[C@@H]3CCC4=CC(=O)CC[C@]4(C)[C@H]3CC[C@@]21C [17α-Hydroxyprogesterone]
Recombinant 20α HSD activity, expressed in E. coli (recombinant 20α-HSD [1]): 97 nmol/min/mg protein | Recombinant 20α HSD activity, expressed in Sf-9 cells (recombinant 20α-HSD [1]): 85 nmol/min/mg protein

B1: recombinant 20α-HSD (Rattus norvegicus) (protein)
chain: MNSKIQKMELNDGHSIPVLGFGTYATEENLRKKSMESTKIAIDVGFRHIDCSHLYQNEEEIGQAIVSKIEDGTVKREDIFYTSKLWSTSHRPELVRPSLENSLRKLNLDYVDLYLIHFPVSLKPGDELLPQDEHGNLILDTVDLCDTWEAMEKCKDAGLAKSIGVSNFNRRQLEKILNKPGLKHRPVCNQVECHLYLNQSKLLAYCKMNDIVLVAYGALGTQRYKYCINEDTPVLLDDPILCTMAKKYKRTPALIALRYQLERGIVTLVKSFNEERIRENLQVFDFQLASDDMEILDNLDRNLRYFPANMFKAHPNFPFSDEY
notes: a DNA fragment of 1.2 Kb containing the entire coding region of 20α-HSD; GST (E. coli preparation only; removed with thrombin) (N, cleaved yes); made in house; host or cells: E. coli DH5α (pGEX-4T-2) and Sf-9 insect cells (baculovirus, pBlueBacIII)
Km [4, 7]: 9.5 µM | Km [4, 8]: 9.6 µM | Km [5, 7]: 5.9 µM | Km [5, 8]: 5.8 µM

B2: recombinant 20α-HSD expressed in E. coli: rat 20α-HSD expressed as GST fusion in E. coli DH5α, thrombin-cleaved and purified (protein, UniProt P51652 1-323, looked up)
Aldo-keto reductase family 1 …: MNSKIQKMELNDGHSIPVLGFGTYATEENLRKKSMESTKIAIDVGFRHIDCSHLYQNEEEIGQAIVSKIEDGTVKREDIFYTSKLWSTSHRPELVRPSLENSLRKLNLDYVDLYLIHFPVSLKPGDELLPQDEHGNLILDTVDLCDTWEAMEKCKDAGLAKSIGVSNFNRRQLEKILNKPGLKHRPVCNQVECHLYLNQSKLLAYCKMNDIVLVAYGALGTQRYKYCINEDTPVLLDDPILCTMAKKYKRTPALIALRYQLERGIVTLVKSFNEERIRENLQVFDFQLASDDMEILDNLDRNLRYFPANMFKAHPNFPFSDEY
modifications: expressed in E. coli; GST tag thrombin-cleaved
notes: rat 20α-HSD expressed as GST fusion in E. coli DH5α, thrombin-cleaved and purified
average specific activity of the purified preparations (recombinant 20α-HSD [6]; purified enzyme from bacterial expression system): 332 ±47 nmol/min/mg protein | Mean Specific Activity ± SE (recombinant 20α-HSD [6]): 332 ± 47 nmol/min - mg protein | Vmax values higher than those of 20α-HSD expressed in insect cells (recombinant 20α-HSD [3]; similar assay conditions): 20-30%

B3: recombinant 20α-HSD expressed in Sf-9 cells: rat 20α-HSD expressed in baculovirus-infected Sf-9 insect cells and purified (protein, UniProt P51652 1-323, looked up)
Aldo-keto reductase family 1 …: MNSKIQKMELNDGHSIPVLGFGTYATEENLRKKSMESTKIAIDVGFRHIDCSHLYQNEEEIGQAIVSKIEDGTVKREDIFYTSKLWSTSHRPELVRPSLENSLRKLNLDYVDLYLIHFPVSLKPGDELLPQDEHGNLILDTVDLCDTWEAMEKCKDAGLAKSIGVSNFNRRQLEKILNKPGLKHRPVCNQVECHLYLNQSKLLAYCKMNDIVLVAYGALGTQRYKYCINEDTPVLLDDPILCTMAKKYKRTPALIALRYQLERGIVTLVKSFNEERIRENLQVFDFQLASDDMEILDNLDRNLRYFPANMFKAHPNFPFSDEY
modifications: expressed in baculovirus Sf-9 cells
notes: rat 20α-HSD expressed in baculovirus-infected Sf-9 insect cells and purified
Mean Specific Activity ± SE (recombinant 20α-HSD [6]): 259 ± 36 nmol/min - mg protein
